Patent publication US20230159436A1, “APPLICATIONS OF AMIDE ANALOGS OF TRITERPENES IN CURES OF CANCER AND OTHER DISEASES” (Pacific Arrow Limited, priority 2021, published 2023)
Where “and” joins values, the source holds several entries; their conditions need not be identical. Equal values may be shown once. Read-outs that look alike come from different tables or passages of the source.

Legend:
Capan cells = experiment: MTT assay, pancreas (Capan); format: cell-based, human
Method: (§1) Cells. HTB-9 (bladder), HeLa-S3 (cervix), DU145 (prostate), H460 (lung), MCF-7 (breast), K562 (leukemia), HCT116 (colon), HepG2 (liver), U2OS (bone), T98G (brain), SK-MEL-5 (Skin) and OVCAR 3, ES2 (ovary), Pancreas (Capan), Mouth (KB), Kidney (A498).
(§2) MTT Assay. The procedure for MTT assay followed the method described by Carmichael et al. (1987) with modifications. The cells were seeded into a 96-well plate at for 24 hours before drug-treatment. The cells were then exposed to the drugs for 48, 72, or 96 hours. After the drug-treatment, MTT (0.5 mg/mL) was added to cultures and incubated for an hour. The formazan (product of the reduction of tetrazolium by viable cells) formed and was dissolved with DMSO and the O.D. at 490 nm, and was measured by an ELISA reader. The MTT level of the cells before drug-treatment was also measured (T0). The % cell-growth (% G) is calculated as: % G=(TD−T0/TC−T0)×100(1), where TC or TD represents O.D. readings of control or drug-treated cells.
(§3) When T0>TD, then the cytotoxicity (LC) expressed as % of the control is calculated as: % LC=(TD−T0/T0)×100(2).
A. Cells: Capan cells are derived from Human pancreas carcinoma (pancreas). Cells were grew in RPMI 1640 medium supplemented with 10% FCS, antibiotics and glutamine. […]
C. […] The percentage of drug-treated cells' growth as compared to those of the no drug control is determined.

HCT116 = experiment: MTT assay, colon (HCT116); format: cell-based
Method: as §1, §2, §3

[1] = tested on: cancer growth, cancer invasion, cells invasion or cancer cell invasion; experiment: Inhibition of cancer growth and invasion (anti-cancer activity); format: cell-based
Excerpt: The program is based on the purification methods and biological assays including the MTT assay as described in International Application No. PCT/US05/31900, filed Sep. 7, 2005, U.S. Ser. No. 11/289,142, filed Nov. 28, 2005, and U.S. Ser. No. 11/131,551, filed May 17, 2005, and PCT/US2008/002086, 1188-ALA-PCT, filed Feb. 15, 2008, Ser. No. 12/344,682, 1020-B1-US, filed Dec. 29, 2008, US009499577B2, filed Jun. 24, 2014. The details of Analysis of gene expression of ES2 cells after Y-treatment by Microarray, Data Analysis Methods and Western blot in PCT/US2008/002086, 1188-ALA-PCT, filed Feb. 15, 2008, and the cell invasion experiments methods in International Application PCT/US2010/0042240, filed Jul. 16, 2010.

OVCAR3 = experiment: MTT assay, ovary (OVCAR3); format: cell-based
Method: as §1, §2, §3

WI38 cells = experiment: MTT assay, normal lung fibroblast (WI38); format: cell-based, human
Method: as §2, §3
(§4) Experiment 30: A Comparison of Non-Cancerous with Cancer Cells: • Method: A. Cells • WI38 is a Normal Lung fibroblast. Cells were grew in MEM medium supplemented with 10% FCS, antibiotics and glutamine. 20K cells were seeded per well (96-welled plate) for one day before drug-treatment • ES2 is a Ovary Clear cells carcinoma. Cells were grew in RPMI-1640 medium supplemented with 10% FCS, antibiotics and glutamine. 10K cells were seeded per well (96-welled plate) for one day before drug-treatment.
(§5) B. Drug Treatment: • Drug: Tig-S. stored as 1000× stock solution in DMSO. • Drug concentration used: from 0.15-20 ug/ml. • Drug-treatment was carried out for 2 days (ES2) or 6 days (WI38). For the 6 days incubation, cells were fed with fresh medium (with drug) on day 3 and 5.
(§6) C. At the End of the Drug-Treatment, Cytotoxic Test was Performed with MTT Assay.

red blood cells (RBC) = experiment: Haemolytic assay; format: cell-based, human
Method: Erythrocytes (RBC) were isolated from human blood (EDTA whole blood, collected randomly). 50 ul of the 10% RBC suspension (in PBS) was added to 2 ml of sample solutions (concentration range from 0.1 ug/ml to 400 ug/ml) in PBS. The mixture was vortexed briefly and sat for 60 min at room temperature. The mixture was spun at 3K for 10 min and the relative amounts of lysed hemoglobin in the supernatant were measured at 540 nm. The synthetic compounds of present application were tested with this method.

ES2 cells = experiment: MTT assay, ovary (ES2); format: cell-based, human
Method: as §1, §2, §3, §4, §5, §6

H460 cells = experiment: MTT assay, lung (H460); format: cell-based, human
Method: as §1, §2, §3
A. Cells • H460 cells are derived from a Human Lung large cell carcinoma. Cells were grew in RPMI 1640 medium supplemented with 10% FCS, antibiotics and glutamine. 5000 cells were seeded in a well (96-welled plate) for one day before drug-treatment
B. Drug Treatment: • Drug: Tig-S (stored as a 1000× stock solution in DMSO) was used. • Drug concentration used: from 0.15-20 ug/ml. • Drug-treatment was carried out for 1, 2 and 4 days. For the 4 days incubation, cells were fed with fresh medium (with drug) on day 2.
C. At the end of the drug-treatment, cytotoxic test was performed with MTT assay.

HepG2 = experiment: MTT assay, liver (HepG2); format: cell-based
Method: as §1, §2, §3

Question: Which “IC50 of pancreas (Capan)” value (Capan cells) does the source give for CC=C(C)C(=O)OCC1(C)C(O)CCC2(C)C1CCC1(C)C2CC=C2C3CC(C)(C)C(O)C(O)C3(COC(=O)C(C)=CC)C(O)CC21C (stereo not drawn) [Tig-R, 24,28-O-Tigloyl-3β,16α,21β,22α,24β,28-hexahydroxyolean-12-ene] here?
Answer: 2.4 µg/mL

Question: What about the “IC50 of colon (HCT116)” value (HCT116) of the same molecule?
Answer: 5.2 µg/mL

Question: And the anti-cancer activity [1]?
Answer: have anti cancer activities

Question: And the IC50 of ovary (OVCAR3) (OVCAR3)?
Answer: 5.8 µg/mL

Question: And the “IC50 in normal human fibroblast cells (WI38)” value (WI38 cells)?
Answer: 10 to 15 µg/mL

Question: And the hemolytic activity (red blood cells (RBC))?
Answer: no hemolytic activity

Question: What about the hemolytic activity (red blood cells (RBC); up to 20 ug/ml) of the same molecule?
Answer: do not have hemolytic activity

Question: What about the “IC50 of ovary (ES2)” value (ES2 cells) of the same molecule?
Answer: 2.8 ug/ml and about 2.8 ug/ml

Question: What about the “IC50 of lung (H460)” value (H460 cells) of the same molecule?
Answer: 4.8 µg/mL

Question: What about the “IC50 of liver (HepG2)” value (HepG2) of the same molecule?
Answer: 6 µg/mL

Question: CC=C(C)C(=O)OCC1(C)C(O)CCC2(C)C1CCC1(C)C2CC=C2C3CC(C)(C)C(OC(=O)C(C)=CC)C(O)C3(CO)C(O)CC21C (stereo not shown) [Tig-S] was tested. Which “IC50, inhibition of pancreas cancer (Capan) cells' growth” value (Capan cells; drug-treatment 3 days) did it give?
Answer: about 1 ug/ml

Question: And the anti-cancer activity [1]?
Answer: have anti cancer activities

Question: What about the “IC50, inhibition of ovarian cancer (OCAR3) cells' growth” value (OVCAR3) of the same molecule?
Answer: 2.5 µg/mL

Question: And the “IC50 of ovary (OVCAR3)” value (OVCAR3)?
Answer: 6.5

Question: And the “IC50, inhibition of WI38 cells” value (WI38 cells; 6 days)?
Answer: 1.5 µg/mL

Question: And the “% of the control cell growth” value (WI38 cells; WI38, at 10 ug/ml)?
Answer: about 55%

Question: And the “MTT OD, % of the original value” (WI38 cells; WI38, at 20 ug/ml)?
Answer: about 90%

Question: And the “cell lost or dead” value (WI38 cells; WI38, at 20 ug/ml)?
Answer: about 10%

Question: And the cells died (WI38 cells; WI38, with 10 ug/ml)?
Answer: 10%

Question: What about the “IC50, inhibition of ES2 cells” value (ES2 cells; 2 days) of the same molecule?
Answer: 0.3 µg/mL

Question: What about the “IC100 (100% inhibition of growth, no cell lost)” value (ES2 cells; ES2) of the same molecule?
Answer: 0.16 to 0.3 µg/mL and 0.15 to 0.3 µg/mL

Question: What about the “% of the control cell growth” value (ES2 cells; ES2, at 10 ug/ml) of the same molecule?
Answer: 10%

Question: What about the “MTT OD, % of the original value” (ES2 cells; ES2, at 10 ug/ml) of the same molecule?
Answer: 12%

Question: And the “IC50, inhibition of lung H460 cells growth” value (H460 cells; 4 days)?
Answer: 3 µg/mL

Question: And the “IC50, inhibition of H460 cells' growth” value (H460 cells; Experiment 32, drug-treatment 1, 2 and 4 days)?
Answer: 3 µg/mL

Question: And the “drug concentration beyond which minimum cells growth inhibition was observed” value (H460 cells; H460)?
Answer: > 5 µg/mL

Question: And the dead cells (H460 cells; H460, drug concentration 20 ug/ml)?
Answer: No dead cell was found

Question: And the “IC50, inhibition of lung H460 cells growth” value (H460 cells; one day)?
Answer: 3.4 µg/mL
